# Source: patent US20260355196A1, “INHIBITORS AND DEGRADERS OF PIP4K PROTEIN” (Larkspur Biosciences, Inc., priority 2023, published 2026)
# Molecular target: T1, PIP4K2C (Homo sapiens, UniProt Q8TBX8)
# T1 sequence (Q8TBX8 1-421): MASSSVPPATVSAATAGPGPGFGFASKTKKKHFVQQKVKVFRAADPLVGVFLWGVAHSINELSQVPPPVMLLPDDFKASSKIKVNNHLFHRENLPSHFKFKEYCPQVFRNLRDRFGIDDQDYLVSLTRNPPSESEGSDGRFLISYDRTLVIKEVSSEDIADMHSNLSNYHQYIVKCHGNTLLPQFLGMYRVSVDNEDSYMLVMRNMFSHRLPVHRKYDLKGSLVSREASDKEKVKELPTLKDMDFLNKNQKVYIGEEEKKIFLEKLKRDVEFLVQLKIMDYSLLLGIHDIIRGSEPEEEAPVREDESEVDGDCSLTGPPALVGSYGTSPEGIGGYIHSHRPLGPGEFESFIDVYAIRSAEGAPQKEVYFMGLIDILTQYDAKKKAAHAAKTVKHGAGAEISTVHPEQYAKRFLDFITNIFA
# Test: HiBiT PIP4K2C degradation assay in MOLT-4 cells (endogenous PIP4K2C C-terminally tagged with HiBiT)
# Format: cell-based
# Design: untagged in primary human PBMCs and monocyte-derived dendritic cells
# Conditions: 6 hours of incubation time, rather than 24 hours; MOLT-4, top concentration 10 micromolar; read-out: HiBIT-degradation MOLT4 PIP4k2C DC50 (6 hours, marked *)
# In short: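 MOLT-4 knock-in line, HiBiT on PIP4K2C C-terminus; 22,500 cells/well; 10-pt 3-fold titration from 10 micromolar, n=2; 24 h or 6 h, 37 C, 5% CO2; Nano-Glo HiBiT lytic luminescence; DC50 via Hill equation.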
row,Compound,DC50
1,"Cn1nc(C2CCC(=O)NC2=O)c2ccc(C3CCN(CC4CCN(C(=O)O[C@H]5CC[C@H](Nc6ncc(F)c(-c7cccc(-n8ccccc8=O)c7)n6)CC5)CC4)CC3)cc21 (stereo partly drawn) [Compound 467, trans-4-((5-fluoro-4-(3-(2-oxopyridin-1 (2H)-yl)phenyl)pyrimidin-2-yl)amino)cyclohexyl 4-((4-(3-(2,6-dioxopiperidin-3-yl)-1-methyl-1H-indazol-6-yl)piperidin-1-yl)methyl)piperidine-1-carboxylate]",< 500 nM
2,"Cc1ccn(-c2cccc(-c3nc(N[C@H]4CC[C@H](C(=O)N5CCC(O)(CN6CCN(c7ccc(NC8CCC(=O)NC8=O)cc7F)CC6)CC5)CC4)ncc3F)c2)c(=O)c1 (stereo partly drawn) [Compound 470, trans-3-((3-fluoro-4-(4-((1-(4-((5-fluoro-4-(3-(4-methyl-2-oxopyridin-1 (2H)-yl)phenyl)pyrimidin-2-yl)amino)cyclohexane-1-carbonyl)-4-hydroxypiperidin-4-yl)methyl)piperazin-1-yl)phenyl)amino)piperidine-2,6-dione]",< 500 nM
3,"O=C1CCC(Nc2ccc(C3CCN(C4CCN(C(=O)O[C@H]5CC[C@H](Nc6ncc(F)c(-c7cccc(-n8ccccc8=O)c7)n6)CC5)CC4)CC3)c(F)c2)C(=O)N1 (stereo partly drawn) [Compound 474, trans-4-((5-fluoro-4-(3-(2-oxopyridin-1 (2H)-yl)phenyl)pyrimidin-2-yl)amino)cyclohexyl 4-(4-((2,6-dioxopiperidin-3-yl)amino)-2-fluorophenyl)-[1,4′-bipiperidine]-1′-carboxylate]",< 500 nM
4,"O=C1CCC(Nc2ccc(N3CCN(C4CCN(C(=O)O[C@H]5CC[C@H](Nc6ncc(F)c(-c7cccc(-n8ccccc8=O)c7)n6)CC5)CC4)CC3)c(F)c2)C(=O)N1 (stereo partly drawn) [Compound 475, trans-4-((5-fluoro-4-(3-(2-oxopyridin-1 (2H)-yl)phenyl)pyrimidin-2-yl)amino)cyclohexyl 4-(4-(4-((2,6-dioxopiperidin-3-yl)amino)-2-fluorophenyl)piperazin-1-yl)piperidine-1-carboxylate]",< 500 nM
5,"O=C1CCC(Nc2ccc(N3CCC(N4CCC(NC(=O)[C@H]5CC[C@H](Nc6ncc(F)c(-c7cccc(N8CCOCC8=O)c7)n6)CC5)CC4)C(F)C3)c(F)c2)C(=O)N1 (stereo partly drawn) [Compound 476, trans-N-(1′-(4-((2,6-dioxopiperidin-3-yl)amino)-2-fluorophenyl)-3′-fluoro-[1,4′-bipiperidin]-4-yl)-4-((5-fluoro-4-(3-(3-oxomorpholino)phenyl)pyrimidin-2-yl)amino)cyclohexane-1-carboxamide]",< 500 nM
6,"CN(C(=O)[C@H]1CC[C@H](N2CCN(c3ccc(NC4CCC(=O)NC4=O)cc3F)CC2)CC1)[C@H]1CC[C@H](Nc2ncc(F)c(-c3cccc(C4CC4)c3)n2)CC1 (stereo partly drawn) [Compound 478, trans-N-((trans)-4-((4-(3-cyclopropylphenyl)-5-fluoropyrimidin-2-yl)amino)cyclohexyl)-4-(4-(4-((2,6-dioxopiperidin-3-yl)amino)-2-fluorophenyl)piperazin-1-yl)-N-methylcyclohexane-1-carboxamide]",< 500 nM
7,"O=C1CCC(Nc2ccc(C3CCN([C@H]4CC[C@H](NC(=O)[C@H]5CC[C@H](Nc6ncc(F)c(-c7cccc(C8(O)CCC8)n7)n6)CC5)CC4)CC3)c(F)c2)C(=O)N1 (stereo partly drawn) [Compound 479, trans-N-((trans)-4-(4-(4-((2,6-dioxopiperidin-3-yl)amino)-2-fluorophenyl)piperidin-1-yl)cyclohexyl)-4-((5-fluoro-4-(6-(1-hydroxycyclobutyl)pyridin-2-yl)pyrimidin-2-yl)amino)cyclohexane-1-carboxamide]",< 500 nM
8,"O=C1CCC(Nc2ccc(C3CCN([C@H]4CC[C@H](NC(=O)[C@H]5CC[C@H](Nc6ncc(F)c(-c7ccnc(N8CCOCC8=O)c7)n6)CC5)CC4)CC3)c(F)c2)C(=O)N1 (stereo partly drawn) [Compound 480, trans-N-((trans)-4-(4-(4-((2,6-dioxopiperidin-3-yl)amino)-2-fluorophenyl)piperidin-1-yl)cyclohexyl)-4-((5-fluoro-4-(2-(3-oxomorpholino)pyridin-4-yl)pyrimidin-2-yl)amino)cyclohexane-1-carboxamide]",< 500 nM
9,"O=C1CCC(Nc2ccc(N3CCN(CC4(F)CCN(C(=O)[C@H]5CC[C@H](Nc6ncc(F)c(-c7cccc(-c8ccccc8)c7)n6)CC5)CC4)CC3)c(F)c2)C(=O)N1 (stereo partly drawn) [Compound 484, trans-3-[3-fluoro-4-[4-[[4-fluoro-1-[4-[[5-fluoro-4-(3-phenylphenyl)pyrimidin-2-yl]amino]cyclohexanecarbonyl]-4-piperidyl]methyl]piperazin-1-yl]anilino]piperidine-2,6-dione]",< 500 nM

# The next lines start with the values.
row,DC50,Compound
1,< 500 nM,"O=C1CCC(Nc2ccc(C3CCN(CC4CCN(C(=O)[C@H]5CC[C@H](Nc6ncc(F)c(-c7cccc(C(=O)N8CC[C@H](O)C8)c7)n6)CC5)CC4)CC3)c(F)c2)C(=O)N1 (stereo partly drawn) [Compound 468, trans-3-((3-fluoro-4-(1-((1-(4-((5-fluoro-4-(3-((S)-3-hydroxypyrrolidine-1-carbonyl)phenyl)pyrimidin-2-yl)amino)cyclohexane-1-carbonyl)piperidin-4-yl)methyl)piperidin-4-yl)phenyl)amino)piperidine-2,6-dione]"
2,< 500 nM,"O=C1CCC(Nc2ccc(C3CCN(CCC4CCN(C(=O)O[C@H]5CC[C@H](Nc6ncc(F)c(-c7cccc(-c8ccccc8)c7)n6)CC5)CC4)CC3)c(F)c2)C(=O)N1 (stereo partly drawn) [Compound 469, trans-4-((4-([1,1′-biphenyl]-3-yl)-5-fluoropyrimidin-2-yl)amino)cyclohexyl 4-(2-(4-(4-((2,6-dioxopiperidin-3-yl)amino)-2-fluorophenyl)piperidin-1-yl)ethyl)piperidine-1-carboxylate]"
3,< 500 nM,"Cc1ccn(-c2cccc(-c3nc(N[C@H]4CC[C@H](C(=O)N5CCC(CN6CCN(c7ccc(NC8CCC(=O)NC8=O)cc7F)CC6)CC5)CC4)ncc3F)c2)c(=O)c1 (stereo partly drawn) [Compound 471, trans-3-((3-fluoro-4-(4-((1-(4-((5-fluoro-4-(3-(4-methyl-2-oxopyridin-1 (2H)-yl)phenyl)pyrimidin-2-yl)amino)cyclohexane-1-carbonyl)piperidin-4-yl)methyl)piperazin-1-yl)phenyl)amino)piperidine-2,6-dione]"
4,< 500 nM,"Cc1ccn(-c2cccc(-c3nc(N[C@H]4CC[C@H](C(=O)N5CCC(O)(CN6CCC(c7ccc(NC8CCC(=O)NC8=O)cc7F)CC6)CC5)CC4)ncc3F)c2)c(=O)c1 (stereo partly drawn) [Compound 472, trans-3-[3-fluoro-4-[1-[[1-[4-[[5-fluoro-4-[3-(4-methyl-2-oxo-1-pyridyl)phenyl]pyrimidin-2-yl]amino]cyclohexanecarbonyl]-4-hydroxy-4-piperidyl]methyl]-4-piperidyl]anilino]piperidine-2,6-dione]"
5,< 500 nM,"Cc1ccn(-c2cccc(-c3nc(N[C@H]4CC[C@H](C(=O)N5CCC(CN6CCC(c7ccc(NC8CCC(=O)NC8=O)cc7F)CC6)CC5)CC4)ncc3F)c2)c(=O)c1 (stereo partly drawn) [Compound 473, trans-3-((3-fluoro-4-(1-((1-(4-((5-fluoro-4-(3-(4-methyl-2-oxopyridin-1 (2H)-yl)phenyl)pyrimidin-2-yl)amino)cyclohexane-1-carbonyl)piperidin-4-yl)methyl)piperidin-4-yl)phenyl)amino)piperidine-2,6-dione]"
6,< 500 nM,"O=C1CCC(Nc2ccc(C3CCN(CC4CCN(C(=O)[C@H]5CC[C@H](Nc6ncc(F)c(-c7cccc(N8CCCCC8)c7)n6)CC5)CC4)CC3)c(F)c2)C(=O)N1 (stereo partly drawn) [Compound 477, trans-3-((3-fluoro-4-(1-((1-(trans-4-((5-fluoro-4-(3-(piperidin-1-yl)phenyl)pyrimidin-2-yl)amino)cyclohexane-1-carbonyl)piperidin-4-yl)methyl)piperidin-4-yl)phenyl)amino)piperidine-2,6-dione]"
7,< 500 nM,"O=C1CCC(Nc2ccc(C3CCN(CC4(O)CCN(C(=O)[C@H]5CC[C@H](Nc6ncc(F)c(-c7cccc(C(=O)N8CC[C@H](O)C8)c7)n6)CC5)CC4)CC3)c(F)c2)C(=O)N1 (stereo partly drawn) [Compound 481, trans-3-((3-fluoro-4-(1-((1-(4-((5-fluoro-4-(3-((S)-3-hydroxypyrrolidine-1-carbonyl)phenyl)pyrimidin-2-yl)amino)cyclohexane-1-carbonyl)-4-hydroxypiperidin-4-yl)methyl)piperidin-4-yl)phenyl)amino)piperidine-2,6-dione]"
8,< 500 nM,"O=C1CCC(Nc2ccc(N3CCN(CC4(O)CCN(C(=O)[C@H]5CC[C@H](Nc6ncc(F)c(-c7cccc(C(=O)N8CC[C@H](O)C8)c7)n6)CC5)CC4)CC3)c(F)c2)C(=O)N1 (stereo partly drawn) [Compound 482, trans-3-((3-fluoro-4-(4-((1-(4-((5-fluoro-4-(3-((S)-3-hydroxypyrrolidine-1-carbonyl)phenyl)pyrimidin-2-yl)amino)cyclohexane-1-carbonyl)-4-hydroxypiperidin-4-yl)methyl)piperazin-1-yl)phenyl)amino)piperidine-2,6-dione]"
9,< 500 nM,"O=C1CCC(Nc2ccc(N3CCN(CC4CCN(C(=O)[C@H]5CC[C@H](Nc6ncc(F)c(-c7cccc(C(=O)N8CC[C@H](O)C8)c7)n6)CC5)CC4)CC3)c(F)c2)C(=O)N1 (stereo partly drawn) [Compound 483, trans-3-((3-fluoro-4-(4-((1-(4-((5-fluoro-4-(3-((S)-3-hydroxypyrrolidine-1-carbonyl)phenyl)pyrimidin-2-yl)amino)cyclohexane-1-carbonyl)piperidin-4-yl)methyl)piperazin-1-yl)phenyl)amino)piperidine-2,6-dione]"
